Reference: US20240391862A1, “(1,4,5-TRISUBSTITUTED-1H-PYRAZOL-3-YL)OXY-2-ALKOXY ALKYL ACIDS AND THEIR DERIVATIVES, THEIR SALTS AND THEIR USE AS HERBICIDAL AGENTS” (Bayer AKtiengesellschaft, priority 2021, published 2024)

Tests used:
Experiment in all cases: Post-emergence herbicidal effect, greenhouse pot test
VIOTR = assay type: in vivo, Viola tricolor; details: Viola tricolor, 504 h, read-out: Post-emergence effect against VIOTR in %
Text: (§1) • ALOMY: Alopecurus myosuroides SETVI: Setaria viridis • AVEFA: Avena fatua POLCO: Fallopia convolvulus • AMARE: Amaranthus retroflexus ECHCG: Echinochloa crus-galli • LOLRJ: Lolium rigidum STEME: Stellaria media • VERPE: Veronica persica MATIN: Tripleurospermum inodorum • DIGSA: Digitaria sanguinalis ABUTH: Abutylon threophrasti • TRZAS: Triticum aestivum VIOTR: Viola tricolor • BRSNW: Brassica napus ZEAMX: Zea mays • PHBPU: Ipomoea purpurea GLXMA: Glycine max • ORYSA: Oryza sativa HORMU: Hordeum murinum
(§2) Seeds of monocotyledonous and dicotyledonous weeds and crop plants are placed in sandy loam in plastic or organic planting pots, covered with soil and cultivated in a greenhouse under controlled growth conditions. 2 to 3 weeks after sowing, the trial plants are treated at the one-leaf stage. The compounds of the invention, formulated in the form of wettable powders (WP) or as emulsion concentrates (EC), are then sprayed onto the green parts of the plants as aqueous suspension or emulsion with addition of 0.5% additive at a water application rate of 600 l/ha (converted). After the test plants have been kept in the greenhouse under optimum growth conditions for about 3 weeks, the activity of the preparations is rated visually in comparison to untreated controls. For example, 100% activity=the plants have died, 0% activity=like control plants.
(§3) Tables 20a to 38c below show the effects/crop compatibilities of selected compounds of the general formula (I) on various harmful plants at an application rate corresponding to 20 to 320 g/ha, which were obtained by the trial procedure specified above.

AVEFA = assay type: in vivo, Avena fatua; details: Avena fatua, 504 h, visual rating about 3 weeks after treatment, read-out: Post-emergence effect against AVEFA
Text: as §1, §2, §3

DIGSA = assay type: in vivo, Digitaria sanguinalis; details: Digitaria sanguinalis, 504 h, visual rating about 3 weeks after treatment, read-out: Post-emergence effect against DIGSA
Text: as §1, §2, §3

PHBPU = assay type: in vivo, Ipomoea purpurea; details: Ipomoea purpurea, 504 h, read-out: Post-emergence effect against PHBPU in %
Text: as §1, §2, §3

VERPE = assay type: in vivo, Veronica persica; details: Veronica persica, 504 h, read-out: Post-emergence effect against VERPE in %
Text: as §1, §2, §3

ABUTH = assay type: in vivo, Abutilon theophrasti; details: Abutilon theophrasti, 504 h, visual rating about 3 weeks after treatment, read-out: Post-emergence effect against ABUTH
Text: as §1, §2, §3

AMARE = assay type: in vivo, Amaranthus retroflexus; details: Amaranthus retroflexus, 504 h, visual rating about 3 weeks after treatment, read-out: Post-emergence effect against AMARE
Text: as §1, §2, §3

ECHCG = assay type: in vivo, Echinochloa crus-galli; details: Echinochloa crus-galli, 504 h; for pest or weed control at 80 g/ha / pest or weed control at 320 g/ha: read-out: Post-emergence effect against ECHCG in %
Text: as §1, §2, §3

SETVI = assay type: in vivo, Setaria viridis; details: Setaria viridis, 504 h, read-out: Post-emergence effect against SETVI in %
Text: as §1, §2, §3

MATIN = assay type: in vivo, Tripleurospermum inodorum; details: Tripleurospermum inodorum, 504 h, read-out: Post-emergence effect against MATIN in %
Text: as §1, §2, §3

LOLRI = assay type: in vivo, Lolium rigidum; details: Lolium rigidum, 504 h, 320 g/ha, read-out: Post-emergence effect against LOLRI in %
Text: as §1, §2, §3

POLCO = assay type: in vivo, Fallopia convolvulus; details: Fallopia convolvulus, 504 h, read-out: Post-emergence effect against POLCO in %
Text: as §1, §2, §3

ALOMY = assay type: in vivo, Alopecurus myosuroides; details: Alopecurus myosuroides, 504 h, 320 g/ha, visual rating about 3 weeks after treatment, read-out: Post-emergence effect against ALOMY
Text: as §1, §2, §3

COC(=O)C(OC)Oc1nn(-c2cc(F)ccc2F)c(-c2cncc(F)c2)c1Br (centres unmarked) [Example I-29]
80%: pest or weed control at 20 g/ha (VIOTR) | pest or weed control at 320 g/ha (DIGSA) | pest or weed control at 20 g/ha (PHBPU; 20 g/ha) | pest or weed control at 80 g/ha (PHBPU) | pest or weed control at 80 g/ha (ABUTH) | pest or weed control at 80 g/ha (ECHCG) | pest or weed control at 20 g/ha (MATIN; 20 g/ha) | pest or weed control at 320 g/ha (POLCO)
90%: pest or weed control at 80 g/ha (VIOTR) | pest or weed control at 320 g/ha (VIOTR) | pest or weed control at 80 g/ha (AVEFA) | pest or weed control at 320 g/ha (AVEFA) | pest or weed control at 320 g/ha (PHBPU) | pest or weed control at 80 g/ha (VERPE) | pest or weed control at 320 g/ha (VERPE) | pest or weed control at 320 g/ha (ABUTH) | pest or weed control at 80 g/ha (AMARE) | pest or weed control at 320 g/ha (AMARE) | pest or weed control at 320 g/ha (ECHCG) | pest or weed control at 80 g/ha (SETVI) | pest or weed control at 320 g/ha (SETVI) | pest or weed control at 80 g/ha (MATIN) | pest or weed control at 320 g/ha (MATIN) | pest or weed control at 320 g/ha (LOLRI) | pest or weed control at 320 g/ha (ALOMY)

COC(=O)C(OC)Oc1nn(-c2ccccc2)c(-c2ccc(F)nc2)c1Br (centres unmarked) [Example I-30]
80%: pest or weed control at 20 g/ha (VIOTR) | pest or weed control at 80 g/ha (PHBPU) | pest or weed control at 20 g/ha (VERPE; 20 g/ha) | pest or weed control at 80 g/ha (VERPE) | pest or weed control at 80 g/ha (ABUTH) | pest or weed control at 80 g/ha (AMARE) | pest or weed control at 320 g/ha (AMARE) | pest or weed control at 20 g/ha (ECHCG; 20 g/ha, visual rating about 3 weeks after treatment, read-out: Post-emergence effect against ECHCG) | pest or weed control at 20 g/ha (SETVI; 20 g/ha) | pest or weed control at 80 g/ha (MATIN) | pest or weed control at 80 g/ha (POLCO; 80 g/ha) | pest or weed control at 320 g/ha (POLCO)
90%: pest or weed control at 80 g/ha (VIOTR) | pest or weed control at 320 g/ha (VIOTR) | pest or weed control at 80 g/ha (AVEFA) | pest or weed control at 320 g/ha (AVEFA) | pest or weed control at 80 g/ha (DIGSA; 80 g/ha) | pest or weed control at 320 g/ha (DIGSA) | pest or weed control at 320 g/ha (PHBPU) | pest or weed control at 320 g/ha (VERPE) | pest or weed control at 320 g/ha (ABUTH) | pest or weed control at 80 g/ha (ECHCG) | pest or weed control at 320 g/ha (ECHCG) | pest or weed control at 80 g/ha (SETVI) | pest or weed control at 320 g/ha (SETVI) | pest or weed control at 320 g/ha (MATIN) | pest or weed control at 320 g/ha (LOLRI) | pest or weed control at 320 g/ha (ALOMY)
